Biological target: T1, nucleophosmin 1 (NPM1) (Homo sapiens, UniProt P06748)
T1 construct: full length of NPM1, recombinant, expressed in E. coli
Assay: SPR (Biacore […], NPM1 immobilized on NTA chip)
Format: binding

T1 sequence (P06748 whole entry): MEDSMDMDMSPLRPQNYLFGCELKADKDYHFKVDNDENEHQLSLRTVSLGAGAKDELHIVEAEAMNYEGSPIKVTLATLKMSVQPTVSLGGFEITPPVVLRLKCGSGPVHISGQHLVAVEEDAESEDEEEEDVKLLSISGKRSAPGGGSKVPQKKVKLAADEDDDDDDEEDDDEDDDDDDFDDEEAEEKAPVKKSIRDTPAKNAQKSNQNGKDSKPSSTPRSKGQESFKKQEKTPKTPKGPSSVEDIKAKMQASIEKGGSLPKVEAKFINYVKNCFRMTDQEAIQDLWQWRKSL

Structure (SMILES)	Kd [nM]
CC(C)c1cccc(C(C)C)c1N1C(=O)c2ccc(N)cc2C1=O [TC11, 2-(2,6-diisopropylphenyl)-5-amino-1H-isoindole-1,3-dione]	62.3
Nc1cccc2c1CN(C1CCC(=O)NC1=O)C2=O (centres unmarked) [lenalidomide]	766

— article PMC4305313, “A Novel Phthalimide Derivative, TC11, Has Preclinical Effects on High-Risk Myeloma Cells and Osteoclasts” (PLoS ONE, 2015)
